Experimental data reported in patent US7598255B2 (Janssen Pharmaceutica NV, priority 2005, dated 2009).
Where a name gives a salt, the structure may show the parent alone.

What was measured:
[1] = molecular target: T1, human recombinant 5-HT2C receptor (Homo sapiens, UniProt P28335); experiment: Affinity for 5HT2 receptor binding sites, h5-HT2C, [3H]mesulergine; conditions: CHO h5-HT2C membranes
T1 sequence (P28335 33-458): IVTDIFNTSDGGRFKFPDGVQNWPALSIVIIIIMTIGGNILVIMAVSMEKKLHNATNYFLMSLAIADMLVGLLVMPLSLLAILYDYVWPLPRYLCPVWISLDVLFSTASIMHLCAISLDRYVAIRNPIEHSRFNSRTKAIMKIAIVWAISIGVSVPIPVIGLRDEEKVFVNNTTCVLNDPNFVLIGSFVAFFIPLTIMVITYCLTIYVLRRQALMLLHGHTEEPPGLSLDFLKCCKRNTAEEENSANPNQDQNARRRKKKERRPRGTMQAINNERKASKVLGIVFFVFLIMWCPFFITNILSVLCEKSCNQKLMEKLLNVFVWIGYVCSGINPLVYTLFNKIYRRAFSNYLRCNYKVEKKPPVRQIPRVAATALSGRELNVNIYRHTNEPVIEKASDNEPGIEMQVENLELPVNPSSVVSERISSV
Description: (§1) Sigmoidal inhibition curves were generated and fitted by nonlinear regression analysis (GraphPad Prism).
Receptor binding was performed using the human recombinant 5-HT2A (GB: X57830), 5-HT2B (GB: Z36748) and 5-HT2C (GB: M81778) receptors. The affinity of the compounds for the 3 different human 5-HT2 receptor subtypes was evaluated by competitive radioligand binding assays using [^3H]ketanserin (h5-HT2A) or [^3H]mesulergine (h5-HT2B and h5-HT2C). The assays were performed on membranes prepared from NIH3T3 stably transfected with h5-HT2A or CHO stably transfected with h5-HT2B and h5-HT2C.

[2] = molecular target: 5-HT2A receptor (Homo sapiens, UniProt P28223); experiment: Affinity for 5-HT2A receptor binding sites, radioligand binding with [3H]ketanserin; conditions: read-out: Ki 5-HT2A, rat cortex membranes (assay 2) or NIH3T3 h5-HT2A membranes (assay 3), table does not say which
Description: as §1
The affinity of the compounds for the rat 5-HT2A receptor was evaluated by competitive radioligand binding assay using [^3H]ketanserine as the radioligand. […] Brain tissue (rat cortex) was homogenized in 20 volumes per wet weight tissue of Tris-HCl buffer (50 mM, pH 7.4). The total membrane fraction was collected by centrifugation and washed by subsequent centrifugation runs (25 min at 25,000 g at 4° C.). Membranes were re-suspended in Tris-HCl buffer (50 mM, pH 7.4) containing 1 nM [^3H]ketanserin. Non-specific binding was estimated in the presence of 10 μM risperidone. The incubation was terminated by rapid filtration over Whatman GF/B filters pre-soaked in 0.1% polyethylenimine, and one washing step with 1 mL ice-cold Tris-HCl buffer, pH 7.4.

[3] = molecular target: 5-HT2B receptor (Homo sapiens, UniProt P41595); experiment: Affinity for 5HT2 receptor binding sites, h5-HT2B, [3H]mesulergine; conditions: CHO h5-HT2B membranes
Sequence of 5-HT2B receptor (P41595 whole entry): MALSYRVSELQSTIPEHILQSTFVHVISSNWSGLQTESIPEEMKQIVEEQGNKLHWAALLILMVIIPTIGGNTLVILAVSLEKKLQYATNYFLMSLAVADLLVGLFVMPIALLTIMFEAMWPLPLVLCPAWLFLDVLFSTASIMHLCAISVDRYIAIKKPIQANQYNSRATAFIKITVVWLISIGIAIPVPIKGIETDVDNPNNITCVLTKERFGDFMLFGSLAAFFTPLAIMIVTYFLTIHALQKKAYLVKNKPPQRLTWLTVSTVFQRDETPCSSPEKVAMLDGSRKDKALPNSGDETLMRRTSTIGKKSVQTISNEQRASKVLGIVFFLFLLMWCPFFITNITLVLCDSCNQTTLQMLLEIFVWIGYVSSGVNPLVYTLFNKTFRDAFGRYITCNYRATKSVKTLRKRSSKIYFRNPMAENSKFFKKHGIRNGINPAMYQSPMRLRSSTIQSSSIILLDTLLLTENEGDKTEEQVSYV

[4] = molecular target: rat 5-HT7a receptor (Rattus norvegicus, UniProt P32305); experiment: Affinity for 5-HT7 receptor binding sites, radioligand binding with [3H]5-CT; conditions: membranes of HEK-293 cells with rat 5-HT7a, 1 nM [3H]5-CT
Sequence of rat 5-HT7a receptor (P32305 whole entry): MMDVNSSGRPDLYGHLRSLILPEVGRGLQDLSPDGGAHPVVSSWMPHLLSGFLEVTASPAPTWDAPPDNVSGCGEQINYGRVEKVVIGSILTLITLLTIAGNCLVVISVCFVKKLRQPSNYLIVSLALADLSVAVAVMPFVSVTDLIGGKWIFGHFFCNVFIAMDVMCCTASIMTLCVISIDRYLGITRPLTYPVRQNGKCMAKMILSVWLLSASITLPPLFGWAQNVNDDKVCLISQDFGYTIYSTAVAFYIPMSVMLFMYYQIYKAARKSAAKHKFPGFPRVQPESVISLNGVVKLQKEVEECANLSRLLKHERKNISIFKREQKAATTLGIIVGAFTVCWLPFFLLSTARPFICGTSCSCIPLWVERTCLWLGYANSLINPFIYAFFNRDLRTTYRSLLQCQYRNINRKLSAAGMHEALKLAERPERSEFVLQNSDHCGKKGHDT
Description: The affinity of the compounds described in this invention for the 5-HT7 receptor binding site was evaluated by single competition radioligand binding assay. The assay was performed on membranes prepared from HEK-293 cells that had been subjected to stable transfection with the rat 5-HT7a receptor (GB: NM022938). Cells were scraped from the culture plates, suspended in Tris-HCl 50 mM pH 7.5 and collected through centrifugation (1000 rpm for 5 min). The cell pellets were homogenized (Polytron, 15 s, setting 5) in 50 mM Tris-HCl (pH 7.5), 5 mM EDTA. Following centrifugation (15,000 rpm for 25 min), membranes (135 μg protein/mL) were resuspended in the same buffer and incubated for 60 min at RT with 1 nM [^3H]5-CT in the presence of increasing concentration of test compounds. Nonspecific binding was defined in the presence of 10 μM 5-HT. Incubation was stopped by rapid filtration using the cell harvester (Packard). Radioactivity was counted in a TopCount-NXT (Packard). Experiments were conducted in triplicate.

Row | SMILES | Ki [1] [nM] | Ki [2] [nM] | Ki [3] [nM] | Ki [4] [nM]
1 | CC(C)(C)c1nc2c(c(-c3ccc(F)cc3)n1)CNCC2 [Example 1, 2-tert-Butyl-4-(4-fluoro-phenyl)-5,6,7,8-tetrahydro-pyrido[4,3-d]pyrimidine] | 90 | 4 | 70 | 540
2 | Fc1ccc(-c2nc(Cc3ccccc3)nc3c2CNCC3)cc1 [Example 2, 2-Benzyl-4-(4-fluoro-phenyl)-5,6,7,8-tetrahydro-pyrido[4,3-d]pyrimidine] | 510 | 20 | 5000 | > 10000
3 | CCC(C)c1nc2c(c(-c3ccc(C)cc3)n1)CNCC2 (stereo not shown) [Example 4, 2-sec-Butyl-4-p-tolyl-5,6,7,8-tetrahydro-pyrido[4,3-d]pyrimidine hydrochloride] | 200 | 20 | 250 | > 10000
4 | Fc1ccc(-c2nc(C3CCC3)nc3c2CNCC3)cc1 [Example 5, 2-Cyclobutyl-4-(4-fluoro-phenyl)-5,6,7,8-tetrahydro-pyrido[4,3-d]pyrimidine hydrochloride] | 250 | 13 | 350 | > 10000
5 | Cc1ccc(-c2nc(C3CCC3)nc3c2CNCC3)cc1 [Example 6, 2-Cyclobutyl-4-p-tolyl-5,6,7,8-tetrahydro-pyrido[4,3-d]pyrimidine] | 300 | 50 | 200 | > 10000
6 | Fc1ccc(-c2nc(C3CC3)nc3c2CNCC3)cc1 [Example 7, 2-Cyclopropyl-4-(4-fluoro-phenyl)-5,6,7,8-tetrahydro-pyrido[4,3-d]pyrimidine] | 900 | 25 | – | > 10000
7 | FC(F)(F)c1ccc(-c2nc(Cc3ccccc3)nc3c2CNCC3)cc1 [Example 9, 2-Benzyl-4-(4-trifluoromethyl-phenyl)-5,6,7,8-tetrahydro-pyrido[4,3-d]pyrimidine] | 7500 | 1350 | > 10000 | 5000
8 | Fc1ccc(-c2nc(Cc3ccccc3)nc3c2CNCC3)cc1F [Example 10, 2-Benzyl-4-(3,4-difluoro-phenyl)-5,6,7,8-tetrahydro-pyrido[4,3-d]pyrimidine] | 5000 | 200 | > 10000 | > 10000
9 | c1ccc(Cc2nc3c(c(-c4ccccc4)n2)CNCC3)cc1 [Example 11, 2-Benzyl-4-phenyl-5,6,7,8-tetrahydro-pyrido[4,3-d]pyrimidine] | 2000 | 100 | > 10000 | > 10000
10 | Fc1cccc(-c2nc(Cc3ccccc3)nc3c2CNCC3)c1 [Example 12, 2-Benzyl-4-(3-fluoro-phenyl)-5,6,7,8-tetrahydro-pyrido[4,3-d]pyrimidine] | 5000 | 300 | > 10000 | > 10000
11 | CN1CCc2nc(Cc3ccc(F)cc3)nc(-c3ccc(F)cc3)c2C1 [Example 14, 2-(4-Fluoro-benzyl)-4-(4-fluoro-phenyl)-6-methyl-5,6,7,8-tetrahydro-pyrido[4,3-d]pyrimidine] | 4000 | 30 | 4000 | > 10000
12 | CN1CCc2nc(Cc3ccc(F)cc3)nc(-c3ccc(C#N)cc3)c2C1 [Example 15, 4-[2-(4-Fluoro-benzyl)-6-methyl-5,6,7,8-tetrahydro-pyrido[4,3-d]pyrimidin-4-yl]-benzonitrile] | > 10000 | 1000 | > 10000 | > 10000
13 | N#Cc1ccc(-c2nc(Cc3ccc(F)cc3)nc3c2CNCC3)cc1 [Example 16, 4-[2-(4-Fluoro-benzyl)-5,6,7,8-tetrahydro-pyrido[4,3-d]pyrimidin-4-yl]-benzonitrile] | > 10000 | 2000 | > 10000 | > 10000
14 | COc1ccc(-c2nc(C3CCCC3)nc3c2CNCC3)cc1 [Example 19, 2-Cyclopentyl-4-(4-methoxy-phenyl)-5,6,7,8-tetrahydro-pyrido[4,3-d]pyrimidine] | 200 | 100 | 140 | > 10000
15 | N#Cc1ccc(-c2nc(C3CCCC3)nc3c2CNCC3)cc1 [Example 20, 4-(2-Cyclopentyl-5,6,7,8-tetrahydro-pyrido[4,3-d]pyrimidin-4-yl)-benzonitrile] | > 10000 | 700 | 1200 | > 10000
16 | CC(C)c1nc2c(c(-c3ccc(F)cc3)n1)CN(C)CC2 [Example 22, 4-(4-Fluoro-phenyl)-2-isopropyl-6-methyl-5,6,7,8-tetrahydro-pyrido[4,3-d]pyrimidine] | 1300 | 32 | 500 | > 10000
17 | CC(C)c1nc2c(c(-c3ccc(Cl)c(Cl)c3)n1)CNCC2 [Example 23, 4-(3,4-Dichloro-phenyl)-2-isopropyl-5,6,7,8-tetrahydro-pyrido[4,3-d]pyrimidine hydrochloride] | > 10000 | 500 | > 10000 | > 10000
18 | CC(C)c1nc2c(c(-c3ccc(F)c(F)c3)n1)CNCC2 [Example 24, 4-(3,4-Difluoro-phenyl)-2-isopropyl-5,6,7,8-tetrahydro-pyrido[4,3-d]pyrimidine hydrochloride] | > 10000 | 240 | > 10000 | > 10000
19 | CC(C)c1nc2c(c(-c3cccc(F)c3)n1)CNCC2 [Example 25, 4-(3-Fluoro-phenyl)-2-isopropyl-5,6,7,8-tetrahydro-pyrido[4,3-d]pyrimidine] | > 10000 | 300 | > 10000 | > 10000
20 | CC(C)c1nc2c(c(-c3ccccc3F)n1)CNCC2 [Example 26, 4-(2-Fluoro-phenyl)-2-isopropyl-5,6,7,8-tetrahydro-pyrido[4,3-d]pyrimidine] | > 10000 | 300 | > 10000 | > 10000
21 | CC(C)c1nc2c(c(-c3ccc(F)cc3F)n1)CNCC2 [Example 27, 4-(2,4-Difluoro-phenyl)-2-isopropyl-5,6,7,8-tetrahydro-pyrido[4,3-d]pyrimidine] | > 10000 | 60 | > 10000 | > 10000
22 | Cc1ccc(-c2nc(C(C)C)nc3c2CNCC3)cc1 [Example 28, 2-Isopropyl-4-p-tolyl-5,6,7,8-tetrahydro-pyrido[4,3-d]pyrimidine] | 3000 | 100 | 400 | > 10000
23 | COc1ccc(-c2nc(C(C)C)nc3c2CNCC3)cc1 [Example 30, 2-Isopropyl-4-(4-methoxy-phenyl)-5,6,7,8-tetrahydro-pyrido[4,3-d]pyrimidine] | 2500 | 800 | 1000 | > 10000
24 | CC(C)Cc1nc2c(c(-c3ccc(F)cc3)n1)CNCC2 [Example 37, 4-(4-Fluoro-phenyl)-2-isobutyl-5,6,7,8-tetrahydro-pyrido[4,3-d]pyrimidine] | 1000 | – | 400 | > 10000
25 | CNCCc1cc(-c2ccc(F)cc2)nc(C(C)(C)C)n1 [Example 166, {2-[2-tert-Butyl-6-(4-fluoro-phenyl)-pyrimidin-4-yl]-ethyl}-methyl-amine] | 170 | 11 | 18 | –
